Tests used:
[1] = tested on: collagen gel with fibroblasts; experiment: Collagen gel contraction assay (two-dimensional); type: cell-based, human; details: collagen glycated with ribose at 62.5, 125 and 250 mM
Description: Specifically, the dermal mimics were prepared according to the method of Reference Example 1, and the glycated collagen solution used in step (2) of the preparation method of Reference Example 1 was obtained by treating collagen with ribose at concentrations of 0, 62.5, 125 and 250 mM to induce collagen glycation. In addition, the ribose used was obtained by dissolving D-ribose (Sigma, USA) in water and filtering the solution through a 0.2 μm filter (Minisart® sartorious stedim biotech, Germany).
A specific method for glycation of collagen is as follows. D-ribose was added to a solution of collagen (obtained by dissolving type I collagen (Sigma, USA) in 0.1% acetic acid to a final concentration of 3 mg/ml) at specific concentrations (62.5, 125 and 250 mM) in a clean bench for preventing the contamination of collagen, and the mixture was placed in a rotation mixer rotatable at 360°, after which the mixture was allowed to react at room temperature for 3 days to induce glycation of the collagen.
In addition, for comparison, a collagen gel contraction assay which is a two-dimensional method was carried out by culturing a collagen gel, obtained by mixing fibroblasts with collagen glycated with the above-described concentrations of ribose, in a general culture dish, and obtaining a digital image of the cultured collagen gel.

[2] = tested on: dermal mimics (glycated collagen with human neonatal fibroblasts); experiment: Evaluation of skin elasticity-improving effect using dermal mimics (three-dimensional images); type: cell-based; details: observed about 10 minutes after separation from culture insert
Description: (1) 40 μl of 10× P buffer (DMEM (Dulbecco's Modified Eagle Medium (DMEM powder, Gibco, USA)), a Ham's F-12 nutrient mixture (F-12 powder, Gibco, USA), 4 ml of an antibiotic-antifungal agent (PSF, Gibco, USA) in 400 ml of sterile distilled water, 40 μl of reconstitution buffer (obtained by dissolving 2.2 g of NaHCO3 and 4.77 g of HEPES in 100 ml of 0.05M NaOH, and filtering the solution) and 2 μl of 5 M NaOH were added to an Epi-tube and sufficiently mixed.
(2) 320 μl of an aqueous solution of normal collagen or an aqueous solution of glycated collagen is added to and well mixed with the mixture of step (1) and using a pipette.
(3) 10^4 human neonatal fibroblasts (HDFn, Cascade Biologics, USA) are added to and well mixed with the solution of step (2) using a pipette so that the fibroblasts are uniformly distributed in the solution.
(4) A culture insert (12 mm, Transwell®, Corning, USA) is placed in a 12-well culture dish, and the mixture is placed in the culture insert and is allowed to react at 37° for 30 minutes so that the aqueous collagen solution is hardened.
(5) After the collagen has been completely hardened, fibroblast culture medium (M106, Cascade Biologics, USA) is added to both the inside and outside of the culture insert and incubated overnight. Then, the dermal mimic is incubated for in about one week while the medium is replaced at 3-day intervals. In this process, dermal remodeling occurs due to the interaction between the fibroblasts and the collagen fibers.
Specifically, in this Example, the following collagens were prepared: non-glycated collagen (normal collagen); collagen glycated by treatment with 62.5 mM of ribose; collagen glycated by treatment with 62.5 mM of ribose together with 10 ppm of tocopherol; and collagen glycated by treatment with 62.5 mM of ribose together with 1 ppm of DPHP. Herein, the ribose used was obtained by dissolving D-ribose (Sigma, USA) in water and filtering the solution through a 0.2 μm filter (Minisart® sartorious stedim biotech, Germany). […]

Compound: O=C[C@H](O)[C@H](O)[C@H](O)CO [ribose, D-ribose]
- contraction of collagen gels (two-dimensional digital image) [1]: not contracted
- shape of the dermal mimics (three-dimensional image) ([2]; collagen glycated with 62.5 mM ribose alone): broken down

Compound: CCCCCCCCCCCCCCCC(=O)O[C@@H]1C[C@@H](C(=O)O)N(C(=O)CCCCCCCCCCCCCCC)C1 [DPHP]
- breakdown of the dermal mimics (shape/height on three-dimensional image) ([2]; collagen glycated with 62.5 mM ribose together with 1 ppm DPHP): breakdown of the dermal mimics was inhibited

Compound: tocopherol
- breakdown of the dermal mimics (shape/height on three-dimensional image) ([2]; collagen glycated with 62.5 mM ribose together with 10 ppm tocopherol): breakdown of the dermal mimics was inhibited

Reference: patent US9074235B2, “Method for evaluating the improvement of skin elasticity using a mimetic dermis” (AMOREPACIFIC CORPORATION, priority 2010, dated 2015)
